According to article PMC12218921, “An adaptive peptide-binding site in ubiquitin receptor hRpn13 revealed by structural studies” (Nature Communications, 2025):

Tested on: hRpn13 Pru
Assay: 1H-15N HSQC NMR, DTT versus TCEP in buffer
Type: binding, human
Conditions: 1 mM DTT or TCEP, 15N-hRpn13 Pru, 25 °C, 850 MHz
Excerpt: Although DTT is trapped bound to C88 in the crystal, we expected that its interaction with hRpn13 in solution is likely to be transient and dynamic. Nonetheless, we tested whether NMR spectroscopy could detect differences between hRpn13 Pru dissolved in buffer containing DTT versus TCEP. We used previously obtained NMR resonance assignments[13] and 2D ^1H-^15N HSQC experiments to detect the hRpn13 amide signals, which are sensitive to changes in their chemical environment, for ^15N-labeled hRpn13 Pru with either 1 mM DTT or TCEP present in the buffer. […] C60 and C80 by contrast show no spectral perturbations (Supplementary Fig. 8a).
All ^1H-^15N HSQC experiments were acquired on samples dissolved in NMR buffer (20 mM sodium phosphate, pH 6.5, 50 mM NaCl, 1 mM TCEP, 10% D2O) unless specified, in which case 2 mM DTT replaced TCEP. The samples were purified in DTT-containing buffer and then exchanged into NMR buffer by using Zeba Protein Desalting columns (Thermo Fisher Scientific). The pH was measured and adjusted to 6.5. […] The data were processed by NMRpipe[46] (version 11.5) and spectra visualized and analyzed with NMR-FAM-SPARKY[47] (version 3.190) by using previous chemical shift assignments[12],[23] and NMRbox[48]. The amide nitrogen and hydrogen chemical shift perturbations (CSP) were mapped for each amino acid according to Eq. 1.1 CSP=0.2ΔδN2+ΔδH2 […]

O[C@@H](CS)[C@@H](O)CS (racemic) [DTT, dithiothreitol]
HSQC signal shifting, DTT versus TCEP: slight signal shifting, including for C88
